Measurements published in US9758485B2, “Compounds for controlling arthropods” (priority 2013, dated 2017).

What was measured:
[1] = logP determination by HPLC on a reversed-phase column (C18), EEC Directive 79/831 Annex V.A8; type: physicochemical; settings: for log P: HPLC on reversed-phase column (C18)
[2] = test system: Meloidogyne incognita; assay: Meloidogyne incognita test; type: in vivo; settings: application rate 20 ppm; formation of galls on lettuce roots after 14 days
Description: Meloidogyne incognita Test
Solvent: 125.0 parts by weight of acetone
To produce an appropriate active ingredient formulation, 1 part by weight of active ingredient is mixed with the stated amount of solvent and the concentrate is diluted with water to the desired concentration.
Vessels are filled with sand, active ingredient solution, an egg/larvae suspension of the southern root-knot nematode (Meloidogyne incognita) and lettuce seeds. The lettuce seeds germinate and the plants develop. The galls develop on the roots.
After 14 days, the nematicidal efficacy in % is determined by the formation of galls. 100% means that no galls were found; 0% means that the number of galls on the treated plants corresponds to the untreated control.

[3] = test system: Rhipicephalus sanguineus; assay: Rhipicephalus sanguineus - in vitro contact tests with adult brown dog ticks; type: in vivo; settings: application rate 5 μg/cm^2, after 48 h (dead or moribund)
Summary of the method: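 Test compound was dissolved in acetone p.a. (9 mg in 1 ml, then diluted), and 250 μl were spread evenly over the inner surface of 25 ml test tubes on an orbital shaker at 30 rpm for 2 h. Once the solvent evaporated, 5-10 adult Rhipicephalus sanguineus ticks were sealed in, kept dark at room temperature, and after 48 h placed on a 45-50° C. hotplate to score dead or moribund ticks.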

[4] = test system: Ctenocephalides felis; assay: Ctenocephalides felis - in vitro contact tests with adult cat fleas; type: in vivo; settings: application rate 5 μg/cm^2 (=500 g/ha), after 48 h (dead or moribund)
Summary of the method: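 Acetone solution coated on test-tube inner walls (900 ppm gives 5 μg/cm^2). After drying, 5-10 adult cat fleas added and kept horizontal at room temperature and ambient humidity. At 48 h fleas knocked down; motionless or uncoordinated ones counted dead/moribund, giving % efficacy.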

[5] = test system: Boophilus microplus; assay: Boophilus microplus - injection test; type: in vivo; settings: Rhipicephalus microplus, 168 h; application rate 20 μg/animal; injected into engorged adult female ticks; laying of fertile eggs, after 7 days; read-out: efficacy
Summary of the method: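 Engorged adult female ticks, five per dose, were injected in the abdomen with 1 μl of active ingredient diluted in dimethyl sulphoxide. Animals were kept in dishes under climate control, and egg fertility was assessed after 7 days.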

[6] = test system: Boophilus microplus Parkhurst strain, SP-resistant; assay: Boophilus microplus - dip test; type: in vivo; settings: application rate 100 ppm; dip of engorged adult female ticks; laying of fertile eggs, after 7 days
Summary of the method: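 Adult engorged females of SP-resistant Parkhurst strain (8–10 per tube) fully immersed in compound diluted in water from a DMSO solution. Ticks then kept on filter discs in a climate-controlled room; efficacy scored from fertile egg laying at 7 days, with unclear eggs held about 42 days until hatch (100% = no fertile eggs).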

[7] = test system: Ctenocephalides felis; assay: Ctenocephalides felis - oral test; type: in vivo; settings: Ctenocephalides felis, po, 48 h; application rate 100 ppm in citrated cattle blood; adult fleas; kill after 2 days; read-out: efficacy
Summary of the method: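 About 20 unfed adult cat fleas fed through a parafilm membrane on citrated cattle blood containing compound, dosed from a DMSO stock. Kill in % scored after 2 days; 100% means all fleas dead.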

[8] = test system: Lucilia cuprina; assay: Lucilia cuprina test; type: in vivo; settings: Lucilia cuprina, 48 h; application rate 100 ppm; L1 larvae in minced horsemeat; kill after 2 days; read-out: efficacy
Summary of the method: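 About 20 L1 larvae placed on minced horsemeat treated with compound, formulated in DMSO and diluted with water to test concentration. Kill in % scored after 2 days (100% = all larvae dead, 0% = none).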

[9] = test system: Musca domestica; assay: Musca domestica test; type: in vivo; settings: application rate 100 ppm; adult houseflies; kill after 2 days
Summary of the method: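 Compound in DMSO, diluted with water, applied to a sugar-solution sponge; vessels hold 10 adult houseflies. Percent mortality scored after 2 days.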

[10] = test system: Phaedon cochleariae; assay: Phaedon cochleariae - spray test; type: in vivo; settings: Phaedon cochleariae, foliar, 168 h; application rate 100 g/ha; larvae on Chinese cabbage leaf discs; after 7 days; read-out: efficacy
Description: Phaedon cochleariae—Spray Test
(§1) Solvent: 78.0 parts by weight of acetone and 1.5 parts by weight of dimethylformamide
(§2) Emulsifier: alkylaryl polyglycol ether
(§3) To produce an appropriate active ingredient formulation, 1 part by weight of active ingredient is dissolved using the specified parts by weight of solvent and made up with water containing an emulsifier concentration of 1000 ppm until the desired concentration is attained. To produce further test concentrations, the preparation is diluted with emulsifier-containing water.
Discs of Chinese cabbage leaves (Brassica pekinensis) are sprayed with an active ingredient formulation of the desired concentration and, after drying, populated with larvae of the mustard beetle (Phaedon cochleariae).
After 7 days, efficacy in % is determined. 100% means that all the beetle larvae have been killed; 0% means that no beetle larvae have been killed.

[11] = test system: Spodoptera frugiperda; assay: Spodoptera frugiperda - spray test; type: in vivo; settings: foliar, 168 h, application rate 100 g/ha, caterpillars on maize leaf discs, after 7 days, read-out: efficacy
Description: Spodoptera frugiperda—Spray Test
as §1, §2, §3
Leaf discs of maize (Zea mays) are sprayed with an active ingredient formulation of the desired concentration and, after drying, populated with caterpillars of the armyworm (Spodoptera frugiperda).
After 7 days, efficacy in % is determined. 100% means that all the caterpillars have been killed; 0% means that no caterpillars have been killed.

[12] = test system: Tetranychus urticae; assay: Tetranychus urticae - spray test, OP-resistant; type: in vivo; settings: foliar, 144 h, application rate 100 g/ha, bean leaf discs, after 6 days, read-out: efficacy
Description: Tetranychus urticae—Spray Test, OP-Resistant
as §1, §2, §3
Discs of bean leaves (Phaseolus vulgaris) infested by all stages of the greenhouse red spider mite (Tetranychus urticae) are sprayed with an active ingredient formulation of the desired concentration.
After 6 days, efficacy in % is determined. 100% means that all the spider mites have been killed; 0% means that none of the spider mites have been killed.

Row | SMILES | log P [1] | efficacy [2] [%] | chromatographic logP ([1]; reversed-phase HPLC column (C18), HPLC, reversed-phase C18, acetonitrile/water with formic acid, 55° C., read-out: logP) | efficacy [3] [%] | efficacy [4] [%] | pest or weed control at 0.02 mg [5] [%] | efficacy [6] [%] | pest or weed control at 100 ppm [7] [%] | pest or weed control at 100 ppm [8] [%] | efficacy [9] [%] | pest or weed control at 100 g/ha [10] [%] | pest or weed control at 100 g/ha [11] [%] | pest or weed control at 100 g/ha [12] [%]
1 | O=C(NC1CC1)c1cc(-c2cnn(-c3c(Cl)cc(C(F)(F)F)c(F)c3Cl)c2)ccc1Cl [I-T3-184] | 3.6 | 90 |  |  |  |  |  |  |  |  |  |  | 
2 | N#CC1(NC(=O)c2cc(-c3cnn(-c4c(Cl)cc(C(F)(F)F)c(F)c4Cl)c3)ccc2Cl)CC1 [I-T3-185] | 3.6 | 90 |  |  |  |  |  |  |  |  |  |  | 
3 | Cc1cc(C(F)(C(F)(F)F)C(F)(F)F)cc(C(F)(F)F)c1-c1cc(-c2ccc(Cl)c(C(=O)NC3(C#N)CC3)c2)on1 [I-T22-7, 2-chloro-N-(1-cyanocyclopropyl)-5-[3-[2-methyl-4-[1,2,2,2-tetrafluoro-1-(trifluoromethyl)ethyl]-6-(trifluoromethyl)phenyl]isoxazol-5-yl]benzamide] |  |  | 4.7 | 100 | 100 | 100 | 100 | 100 | 100 | 100 | 100 | 100 | 100
